Laboratory results published in paper PMC6979384, “Characterization of the plant homeodomain (PHD) reader family for their histone tail interactions” (Epigenetics & Chromatin, 2020).

Tests used:
Assay in all cases: Histone peptide microarray
Assay type in all cases: binding, human
KDM5A (1) = conditions: KDM5A (1), GST-tagged; arrays performed twice, n of 4
Text: (§1) To more comprehensively define the histone interactions of the 31 PHD readers identified from the domain microarray analyses, we probed each on an alternate microarray platform containing a library of 293 synthetic histone peptides with single or combinatorial PTMs (Additional file 2: Figure S4 and Additional file 3: Table S2).
(§2) The 31 GST-tagged PHD readers identified in the PHD finger domain array were expressed and purified as previously. Histone peptide arrays and peptide pulldown assays were conducted as recently described (specifically, the optimized protocol from Petell et al. for the former).
(§3) Supplementary file 13072_2020_328_MOESM3_ESM.xlsx: Additional file 3: Table S2. […] Excel Tab Peptide List is a compiled list of the entire 293 histone peptide library with amino acid sequence ranges. […] Each number corresponds to the peptide number designated in Peptide List. Excel Tab Average Signals is a compiled set of binding data: chromatin reader at 0.5 μM vs. entire 293 peptide library. Data is presented as the average and standard deviation of 4 replicates. The average signals are colored to indicate signal intensity with green being strong and white being weak/low. […] Key: red= stronger relative binding; blue = weaker relative binding. Excel Tab Array info summary is a table summarizing the domains, sequence coverage, array signal range, and noise for each of the GST-tagged readers assayed on the peptide microarrays.

AIRE (PP) = conditions: AIRE (PP), GST-tagged; arrays performed twice, n of 4
Text: as §1, §2, §3

PHF23 = conditions: PHF23, GST-tagged; arrays performed twice, n of 4
Text: as §1, §2, §3

MORC3 (CW) = conditions: MORC3 (CW), GST-tagged; arrays performed twice, n of 4
Text: as §1, §2, §3

TAF3 = conditions: TAF3, GST-tagged; arrays performed twice, n of 4
Text: as §1, §2, §3

DPF2 (PPC2W2) = conditions: DPF2 (PPC2W2), GST-tagged; arrays performed twice, n of 4
Text: as §1, §2, §3

BPTF (PB) = conditions: BPTF (PB), GST-tagged; arrays performed twice, n of 4
Text: as §1, §2, §3

SP140L = conditions: SP140L, GST-tagged; arrays performed twice, n of 4
Text: as §1, §2, §3

KDM7A = conditions: KDM7A, GST-tagged; arrays performed twice, n of 4
Text: as §1, §2, §3

ING3 = conditions: ING3, GST-tagged; arrays performed twice, n of 4
Text: as §1, §2, §3

RAG2 = conditions: RAG2, GST-tagged; arrays performed twice, n of 4
Text: as §1, §2, §3

KDM5A (3) = conditions: KDM5A (3), GST-tagged; arrays performed twice, n of 4
Text: as §1, §2, §3

ING1 = conditions: ING1, GST-tagged; arrays performed twice, n of 4
Text: as §1, §2, §3

TRIM66 (PB) = conditions: TRIM66 (PB), GST-tagged; arrays performed twice, n of 4
Text: as §1, §2, §3

MLL5 = conditions: MLL5, GST-tagged; arrays performed twice, n of 4
Text: as §1, §2, §3

PHF2 = conditions: PHF2, GST-tagged; arrays performed twice, n of 4
Text: as §1, §2, §3

CHD5 (PCC) = conditions: CHD5 (PCC), GST-tagged; arrays performed twice, n of 4
Text: as §1, §2, §3

ING4 = conditions: ING4, GST-tagged; arrays performed twice, n of 4
Text: as §1, §2, §3

CHD4 (PPCC) = conditions: CHD4 (PPCC), GST-tagged; arrays performed twice, n of 4
Text: as §1, §2, §3

PHF13 = conditions: PHF13, GST-tagged; arrays performed twice, n of 4
Text: as §1, §2, §3

KDM5B (3) = conditions: KDM5B (3), GST-tagged; arrays performed twice, n of 4
Text: as §1, §2, §3

PHRF1 (RP) = conditions: PHRF1 (RP), GST-tagged; arrays performed twice, n of 4
Text: as §1, §2, §3

ING5 = conditions: ING5, GST-tagged; arrays performed twice, n of 4
Text: as §1, §2, §3

KDM4C (TTP) = conditions: KDM4C (TTP), GST-tagged; arrays performed twice, n of 4
Text: as §1, §2, §3

PHF21A = conditions: PHF21A, GST-tagged; arrays performed twice, n of 4
Text: as §1, §2, §3

BAZ2B = conditions: BAZ2B, GST-tagged; arrays performed twice, n of 4
Text: as §1, §2, §3

PHF8 = conditions: PHF8, GST-tagged; arrays performed twice, n of 4
Text: as §1, §2, §3

ING2 = conditions: ING2, GST-tagged; arrays performed twice, n of 4
Text: as §1, §2, §3

DIDO1 = conditions: DIDO1, GST-tagged; arrays performed twice, n of 4
Text: as §1, §2, §3

CHD5 (PPCC) = conditions: CHD5 (PPCC), GST-tagged; arrays performed twice, n of 4
Text: as §1, §2, §3

Array Heatmap value (peptide array binding signal) (KDM5A (1)) | Array Heatmap value (peptide array binding signal) (AIRE (PP)) | Array Heatmap value (peptide array binding signal) (PHF23) | Array Heatmap value (peptide array binding signal) (MORC3 (CW)) | Array Heatmap value (peptide array binding signal) (TAF3) | Array Heatmap value (peptide array binding signal) (DPF2 (PPC2W2)) | Array Heatmap value (peptide array binding signal) (BPTF (PB)) | Array Heatmap value (peptide array binding signal) (SP140L) | Array Heatmap value (peptide array binding signal) (KDM7A) | Array Heatmap value (peptide array binding signal) (ING3) | Array Heatmap value (peptide array binding signal) (RAG2) | Array Heatmap value (peptide array binding signal) (KDM5A (3)) | Array Heatmap value (peptide array binding signal) (ING1) | Array Heatmap value (peptide array binding signal) (TRIM66 (PB)) | Array Heatmap value (peptide array binding signal) (MLL5) | Array Heatmap value (peptide array binding signal) (PHF2) | Array Heatmap value (peptide array binding signal) (CHD5 (PCC)) | Array Heatmap value (peptide array binding signal) (ING4) | Array Heatmap value (peptide array binding signal) (CHD4 (PPCC)) | Array Heatmap value (peptide array binding signal) (PHF13) | Substance | further results
0.4676 | 0.4583 | 0.509 | 0.3384 | 0.2655 | 0.6547 | 0.3372 | 0.3592 | 0.3523 | 0.4411 | 0.2387 | 0.4193 | 0.5084 | 0.5396 | 0.5139 | 0.425 | 0.7385 | 0.4436 | 0.5383 | 0.5774 | H4K5ac + K16ac: H4 1-23 | Array Heatmap value (peptide array binding signal) (KDM5B (3)): 0.4611; Array Heatmap value (peptide array binding signal) (PHRF1 (RP)): 0.4298; Array Heatmap value (peptide array binding signal) (ING5): 0.3563; Array Heatmap value (peptide array binding signal) (KDM4C (TTP)): 0.5082; Array Heatmap value (peptide array binding signal) (PHF21A): 0.4348; Array Heatmap value (peptide array binding signal) (BAZ2B): 0.4504; Array Heatmap value (peptide array binding signal) (PHF8): 0.3305; Array Heatmap value (peptide array binding signal) (ING2): 0.5823; Array Heatmap value (peptide array binding signal) (DIDO1): 0.6124; Array Heatmap value (peptide array binding signal) (CHD5 (PPCC)): 0.5427
0.4987 | 0.5703 | 0.5272 | 0.3777 | 0.2763 | 0.6914 | 0.3598 | 0.3826 | 0.4671 | 0.4849 | 0.2531 | 0.4276 | 0.5248 | 0.5841 | 0.5505 | 0.4562 | 0.8072 | 0.4864 | 0.5759 | 0.6286 | H4K8ac + K12ac: H4 1-23 | Array Heatmap value (peptide array binding signal) (KDM5B (3)): 0.5016; Array Heatmap value (peptide array binding signal) (PHRF1 (RP)): 0.4073; Array Heatmap value (peptide array binding signal) (ING5): 0.3813; Array Heatmap value (peptide array binding signal) (KDM4C (TTP)): 0.5553; Array Heatmap value (peptide array binding signal) (PHF21A): 0.4992; Array Heatmap value (peptide array binding signal) (BAZ2B): 0.5085; Array Heatmap value (peptide array binding signal) (PHF8): 0.3425; Array Heatmap value (peptide array binding signal) (ING2): 0.5831; Array Heatmap value (peptide array binding signal) (DIDO1): 0.6459; Array Heatmap value (peptide array binding signal) (CHD5 (PPCC)): 0.5916
